Laboratory results taken from publication PMC7558026, “Exploring and applying the substrate promiscuity of a C-glycosyltransferase in the chemo-enzymatic synthesis of bioactive C-glycosides” (Nature Communications, 2020).
“And” between values parts separate entries of the source, which are not always exact repeats. Equal values may be shown once.

Experiments:
AbCGT [1] = assay: Effects of pH, temperature and divalent metal ions on AbCGT activity (phloretin 17 + UDP-Glc); assay type: biochemical, Aloe barbadensis; conditions: for relative activity / conversion rates of Phloretin: in presence of the divalent cation or EDTA; for relative activity: relative to CK; for effect of divalent metal ion on catalytic activity of AbCGT (in words): 5 mM, phloretin (17) + UDP-Glc, 10 min
Method: To assay for the optimal reaction temperature, the reaction mixtures were incubated at pH 11.0 and different temperatures (15–60 °C). To test the necessity of divalent metal ions for AbCGT, BaCl2, CaCl2, CoCl2, CuCl2, FeCl2, MgCl2, MnCl2, ZnCl2, and EDTA were used individually at a final concentration of 5 mM. […] For quantification, three parallel assays were routinely carried out.

AbCGT [2] = molecular target: AbCGT (Aloe vera, UniProt A0A7G9P699); assay: Glycosyltransferase activity assay, purified AbCGT (wild type) with aglycon acceptors and UDP-Glc; assay type: biochemical, Aloe barbadensis; conditions: aglycon acceptor with UDP-Glc, pH 7.4, 30 °C, up to 12 h; Reaction-1 to -3
Chain of AbCGT (Aloe vera, UniProt A0A7G9P699) (A0A7G9P699 entry or part of it): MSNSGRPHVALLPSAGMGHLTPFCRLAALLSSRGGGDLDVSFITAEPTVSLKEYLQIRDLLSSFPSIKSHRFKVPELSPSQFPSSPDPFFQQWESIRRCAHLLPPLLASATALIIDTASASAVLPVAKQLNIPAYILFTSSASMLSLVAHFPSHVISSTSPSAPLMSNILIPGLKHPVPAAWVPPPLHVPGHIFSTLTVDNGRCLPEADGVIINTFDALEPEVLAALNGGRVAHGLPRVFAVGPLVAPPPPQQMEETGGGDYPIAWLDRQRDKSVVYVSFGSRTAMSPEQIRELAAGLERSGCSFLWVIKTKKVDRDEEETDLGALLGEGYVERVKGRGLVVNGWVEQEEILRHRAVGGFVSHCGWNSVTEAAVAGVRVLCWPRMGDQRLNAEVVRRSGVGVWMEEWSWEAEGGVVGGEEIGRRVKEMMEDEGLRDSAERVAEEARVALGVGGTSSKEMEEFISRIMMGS
Method: Due to the instability of some acceptors in the buffer of pH 11.0, the reactions were performed under the physiological conditions (pH 7.4, 30 °C) to compare the catalytic activities of AbGT27 with different substrates under the same conditions. The reactions were performed at 30 °C for up to 12 h and terminated by the addition of 200 μL of ice-cold methanol. Subsequently, samples were centrifuged at 15,000 × g for 30 min to collect the supernatant, and aliquots were analyzed by HPLC-UV/ESIMS. […] The gradient programs were used for the analysis of the reactions (Supplementary Table 6). The conversion rates of the enzyme reactions were calculated from peak areas of glycosylated products and substrates as analyzed by HPLC. To facilitate inferential statistical analysis, three parallel assays were routinely performed; the means ± SD from triplicate analyses are reported here.

SMILES: [Ba+2].[Cl-].[Cl-] [Ba2+]
- relative activity (AbCGT [1]; reaction-1): 119.8
- relative activity (AbCGT [1]; reaction-2): 122.9
- relative activity (AbCGT [1]; reaction-3): 119.3
- conversion rates of Phloretin (AbCGT [1]; reaction-1): 62
- conversion rates of Phloretin (AbCGT [1]; reaction-2): 63.6
- conversion rates of Phloretin (AbCGT [1]; reaction-3): 61.7

SMILES: [Ba+2].[Cl-].[Cl-] [Ba^2+]
- effect of divalent metal ion on catalytic activity of AbCGT (in words) (AbCGT [1]): greatly enhanced the catalytic activity of AbCGT

SMILES: [Ca+2].[Cl-].[Cl-] [Ca2+]
- relative activity (AbCGT [1]; reaction-1): 149.8
- relative activity (AbCGT [1]; reaction-2): 161.0
- relative activity (AbCGT [1]; reaction-3): 139.4
- conversion rates of Phloretin (AbCGT [1]; reaction-1): 77.5
- conversion rates of Phloretin (AbCGT [1]; reaction-2): 83.3
- conversion rates of Phloretin (AbCGT [1]; reaction-3): 72.1

SMILES: [Ca+2].[Cl-].[Cl-] [Ca^2+]
- effect of divalent metal ion on catalytic activity of AbCGT (in words) (AbCGT [1]): greatly enhanced the catalytic activity of AbCGT

SMILES: [Co+2] [Co2+]
- relative activity (AbCGT [1]; reaction-1): 36.5
- relative activity (AbCGT [1]; reaction-2): 41.0
- relative activity (AbCGT [1]; reaction-3): 43.9
- conversion rates of Phloretin (AbCGT [1]; reaction-1): 18.9
- conversion rates of Phloretin (AbCGT [1]; reaction-2): 21.2
- conversion rates of Phloretin (AbCGT [1]; reaction-3): 22.7

SMILES: Cc1cc(O)cc(O)c1C=O [Compound 8]
- conversion rates, O,N,S-glycosylation (AbCGT [2]): 0%
- conversion rates, di-C-glycosylation (AbCGT [2]): 0%
- conversion rates, mono-C-glycosylation (AbCGT [2]): 86.7% and 87.5% and 90.2%

SMILES: CC(=O)c1c(C)cc(O)cc1O [Compound 9]
- conversion rates, O,N,S-glycosylation (AbCGT [2]): 0%
- conversion rates, di-C-glycosylation (AbCGT [2]): 0%
- conversion rates, mono-C-glycosylation (AbCGT [2]): 45.2% and 41.8% and 43%

SMILES: O=Cc1c(O)cc(O)cc1O [Compound 10]
- conversion rates, O,N,S-glycosylation (AbCGT [2]): 0%
- conversion rates, di-C-glycosylation (AbCGT [2]): 100%
- conversion rates, mono-C-glycosylation (AbCGT [2]): 0%

SMILES: CC(=O)c1c(O)cc(O)c(C(C)=O)c1O [Compound 12]
- conversion rates, O,N,S-glycosylation (AbCGT [2]): 0%
- conversion rates, di-C-glycosylation (AbCGT [2]): 0%
- conversion rates, mono-C-glycosylation (AbCGT [2]): 100%

SMILES: COc1cc(OC)c(C(C)=O)c(OC)c1 [Compound 15]
- conversion rates, O,N,S-glycosylation (AbCGT [2]): 0%
- conversion rates, di-C-glycosylation (AbCGT [2]): 0%
- conversion rates, mono-C-glycosylation (AbCGT [2]): 0%

SMILES: CCCCC(=O)c1c(O)cc(O)cc1O [Compound 16]
- conversion rates, O,N,S-glycosylation (AbCGT [2]): 0%
- conversion rates, di-C-glycosylation (AbCGT [2]): 100%
- conversion rates, mono-C-glycosylation (AbCGT [2]): 0%

SMILES: O=C(OCCCc1ccccc1)c1c(O)cc(O)cc1O [Compound 18]
- conversion rates, O,N,S-glycosylation (AbCGT [2]): 0%
- conversion rates, di-C-glycosylation (AbCGT [2]): 93.8% and 92% and 91.6%
- conversion rates, mono-C-glycosylation (AbCGT [2]): 3.2% and 4.7% and 4%

SMILES: O=C(c1ccc(O)c(O)c1)c1c(O)cc(O)cc1O [Compound 19]
- conversion rates, O,N,S-glycosylation (AbCGT [2]): 0%
- conversion rates, di-C-glycosylation (AbCGT [2]): 63% and 63.5% and 65.1%
- conversion rates, mono-C-glycosylation (AbCGT [2]): 37% and 36.5% and 34.9%

SMILES: Cc1cc(=O)oc2cc(O)ccc12 [Compound 24, 7-hydroxy-4-methylcoumarin]
- conversion rates, O,N,S-glycosylation (AbCGT [2]): 90% and 92% and 94.8%
- conversion rates, di-C-glycosylation (AbCGT [2]): 0%
- conversion rates, mono-C-glycosylation (AbCGT [2]): 0%

SMILES: Cc1cc(=O)oc2cc(S)ccc12 [Compound 25, 7-mercapto-4-methylcoumarin]
- conversion rates, O,N,S-glycosylation (AbCGT [2]): 87% and 86% and 85.3%
- conversion rates, di-C-glycosylation (AbCGT [2]): 0%
- conversion rates, mono-C-glycosylation (AbCGT [2]): 0%

SMILES: [Cu+2] [Cu2+]
- relative activity (AbCGT [1]; reaction-1): 0.0
- relative activity (AbCGT [1]; reaction-2): 0.0
- relative activity (AbCGT [1]; reaction-3): 0.0
- conversion rates of Phloretin (AbCGT [1]; reaction-1): 0
- conversion rates of Phloretin (AbCGT [1]; reaction-2): 0
- conversion rates of Phloretin (AbCGT [1]; reaction-3): 0

SMILES: O=C(O)CN(CCN(CC(=O)O)CC(=O)O)CC(=O)O [EDTA]
- relative activity (AbCGT [1]; reaction-1): 89.5
- relative activity (AbCGT [1]; reaction-2): 90.9
- relative activity (AbCGT [1]; reaction-3): 102.3
- conversion rates of Phloretin (AbCGT [1]; reaction-1): 46.3
- conversion rates of Phloretin (AbCGT [1]; reaction-2): 47
- conversion rates of Phloretin (AbCGT [1]; reaction-3): 52.9

SMILES: [Fe+2] [Fe2+]
- relative activity (AbCGT [1]; reaction-1): 23.0
- relative activity (AbCGT [1]; reaction-2): 24.7
- relative activity (AbCGT [1]; reaction-3): 18.0
- conversion rates of Phloretin (AbCGT [1]; reaction-1): 11.9
- conversion rates of Phloretin (AbCGT [1]; reaction-2): 12.8
- conversion rates of Phloretin (AbCGT [1]; reaction-3): 9.3

SMILES: [Cl-].[Cl-].[Mg+2] [Mg2+]
- relative activity (AbCGT [1]; reaction-1): 157.2
- relative activity (AbCGT [1]; reaction-2): 160.4
- relative activity (AbCGT [1]; reaction-3): 167.6
- conversion rates of Phloretin (AbCGT [1]; reaction-1): 81.3
- conversion rates of Phloretin (AbCGT [1]; reaction-2): 83
- conversion rates of Phloretin (AbCGT [1]; reaction-3): 86.7

SMILES: [Cl-].[Cl-].[Mg+2] [Mg^2+]
- effect of divalent metal ion on catalytic activity of AbCGT (in words) (AbCGT [1]): greatly enhanced the catalytic activity of AbCGT

SMILES: [Cl][Mn][Cl] [Mn2+]
- relative activity (AbCGT [1]; reaction-1): 162.4
- relative activity (AbCGT [1]; reaction-2): 178.6
- relative activity (AbCGT [1]; reaction-3): 171.3
- conversion rates of Phloretin (AbCGT [1]; reaction-1): 84
- conversion rates of Phloretin (AbCGT [1]; reaction-2): 92.4
- conversion rates of Phloretin (AbCGT [1]; reaction-3): 88.6

SMILES: [Cl][Mn][Cl] [Mn^2+]
- effect of divalent metal ion on catalytic activity of AbCGT (in words) (AbCGT [1]): greatly enhanced the catalytic activity of AbCGT

SMILES: [Ni+2] [Ni2+]
- relative activity (AbCGT [1]; reaction-1): 13.7
- relative activity (AbCGT [1]; reaction-2): 12.0
- relative activity (AbCGT [1]; reaction-3): 15.5
- conversion rates of Phloretin (AbCGT [1]; reaction-1): 7.1
- conversion rates of Phloretin (AbCGT [1]; reaction-2): 6.2
- conversion rates of Phloretin (AbCGT [1]; reaction-3): 8

SMILES: [Zn+2] [Zn2+]
- relative activity (AbCGT [1]; reaction-1): 1.9
- relative activity (AbCGT [1]; reaction-2): 3.9
- relative activity (AbCGT [1]; reaction-3): 1.9
- conversion rates of Phloretin (AbCGT [1]; reaction-1): 1
- conversion rates of Phloretin (AbCGT [1]; reaction-2): 2
- conversion rates of Phloretin (AbCGT [1]; reaction-3): 1
